Measured values from publication PMC6864136 (Saudi Journal of Biological Sciences, 2018).
Converted amounts (≈) assume the structure as drawn. “And” between values parts separate entries of the source, which are not always exact repeats. Equal entries are not always repeated. Where two headings read alike, the source gives them in different places.

What was measured:
[1] = target: electric-eel AChE (Electrophorus electricus, UniProt O42275); experiment: In vitro acetylcholinesterase inhibition; format: biochemical
Sequence of electric-eel AChE (O42275 24-633): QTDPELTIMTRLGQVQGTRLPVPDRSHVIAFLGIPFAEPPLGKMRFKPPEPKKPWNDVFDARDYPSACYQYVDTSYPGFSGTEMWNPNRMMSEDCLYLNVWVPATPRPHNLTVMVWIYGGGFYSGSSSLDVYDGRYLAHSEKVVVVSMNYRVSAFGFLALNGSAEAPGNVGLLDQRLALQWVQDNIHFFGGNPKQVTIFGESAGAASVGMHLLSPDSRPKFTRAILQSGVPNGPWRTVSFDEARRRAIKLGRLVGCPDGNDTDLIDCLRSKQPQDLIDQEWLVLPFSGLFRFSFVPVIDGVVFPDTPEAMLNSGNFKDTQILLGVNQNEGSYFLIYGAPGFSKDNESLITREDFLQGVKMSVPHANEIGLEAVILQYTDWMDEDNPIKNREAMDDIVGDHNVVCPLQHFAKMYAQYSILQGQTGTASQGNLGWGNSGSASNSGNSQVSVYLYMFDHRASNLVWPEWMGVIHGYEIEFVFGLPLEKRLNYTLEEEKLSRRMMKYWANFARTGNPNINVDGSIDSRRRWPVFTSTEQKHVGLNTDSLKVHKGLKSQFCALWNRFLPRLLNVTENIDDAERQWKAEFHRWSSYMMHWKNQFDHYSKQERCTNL

[2] = system: Spodoptera frugiperda larvae; experiment: whole plant or invertebrate; format: in vivo; settings: for EC50: Spodoptera frugiperda, in Zea mays, read-out: Antifeedant activity CE50 (µg/mL), S. frugiperda larvae, no-choice; for EC50 / Antifeedant activity CE50 (µg/mL) / Antifeedant activity CE50: 95% confidence limits in parentheses; for Antifeedant activity CE50 (µg/mL) / Antifeedant activity CE50: S. frugiperda larvae, no-choice
[3] = system: Artemia salina larvae; experiment: Brine shrimp lethality; settings: A. salina nauplii; 95% confidence limits in parentheses
[4] = system: Spodoptera frugiperda larvae; format: in vivo
[5] = S. frugiperda larvae, topical application, 95% confidence limits in parentheses

For `C/C=C/c1ccc(OC)c(OC)c1` [Compound 9, O-methylisoeugenol], the IC50 [1] was 151 µM, the EC50 [2] was 536 µg/mL (≈ 3010 µM) and the “Antifeedant index (% AI)” value ([2]; concentration 50 µg/mL) was 20.5%. The “Antifeedant index (% AI)” value ([2]; concentration 100 µg/mL) was 33.2%, the “Antifeedant index (% AI)” value ([2]; concentration 250 µg/mL) was 40.1% and the “Antifeedant index (% AI)” value ([2]; concentration 500 µg/mL) was 47.3%. The “Antifeedant index (% AI)” value ([2]; concentration 1000 µg/mL) was 58.5%.
`CC1(C)C(C=C(Cl)Cl)C1C(=O)OC(C#N)c1cccc(Oc2ccccc2)c1` (centres unmarked) [Cypermethrin, cypermethrin, reference compound] was tested, and the “Antifeedant activity CE50 (µg/mL)” value [2] was 23.83 (22.55–25.15) µg/mL, the EC50 [2] was 23.9 µg/mL (≈ 57.3 µM) and the “Antifeedant index (% AI)” value ([2]; concentration 25 µg/mL) was 49.2%. For the same compound, the “Antifeedant index (% AI)” value ([2]; concentration 50 µg/mL) was 56.0%, the “Antifeedant index (% AI)” value ([2]; concentration 100 µg/mL) was 61.0% and the “Antifeedant index (% AI)” value ([2]; concentration 250 µg/mL) was 66.5%. For the same compound, the “Antifeedant index (% AI)” value ([2]; concentration 500 µg/mL) was 72.7%, the “Antifeedant index (% AI)” value ([2]; concentration 1000 µg/mL) was 77.9% and the “LC50 (µg/mL), toxicity in Artemia salina larvae test” value [3] was 404.2 (383.2–425.2) µg/mL.
`C=CCc1ccc(O)c(OC)c1` [Compound 1, Eugenol] was tested, and the IC50 [1] was 180 µM, the “Antifeedant activity CE50” value [2] was < 210 µg/mL and the “Antifeedant activity CE50 (µg/mL)” value [2] was 187.7 (176.6–198.9) µg/mL. For the same compound, the EC50 [2] was 188 µg/mL (≈ 1140 µM), the “Antifeedant index (% AI)” value ([2]; concentration 25 µg/mL) was 13.5% and the “Antifeedant index (% AI)” value ([2]; concentration 50 µg/mL) was 32.3%. For the same compound, the “Antifeedant index (% AI)” value ([2]; concentration 100 µg/mL) was 44.9%, the “Antifeedant index (% AI)” value ([2]; concentration 250 µg/mL) was 55.3% and the “Antifeedant index (% AI)” value ([2]; concentration 500 µg/mL) was 62.8%. For the same compound, the “Antifeedant index (% AI)” value ([2]; concentration 1000 µg/mL) was 75.0%.
In the case of `CC=Cc1ccc(OC(=O)c2ccc([N+](=O)[O-])cc2)c(OC)c1` [Compound 12, O-(4-nitrobenzoyl)isoeugenol], the IC50 [1] is reported as 228 µM, the EC50 [2] is reported as 388 µg/mL (≈ 1240 µM) and the “Antifeedant index (% AI)” value ([2]; concentration 50 µg/mL) is reported as 14.4%. The “Antifeedant index (% AI)” value ([2]; concentration 100 µg/mL) was 30.2%, the “Antifeedant index (% AI)” value ([2]; concentration 250 µg/mL) was 41.5% and the “Antifeedant index (% AI)” value ([2]; concentration 500 µg/mL) was 52.8%. The “Antifeedant index (% AI)” value ([2]; concentration 1000 µg/mL) was 66.9%.
For `C=CCc1ccc(OC(C)=O)c(OC)c1` [Compound 6, acetyleugenol], the IC50 [1] was 184 µM, the “Insecticidal activity LD50 (mg/g of insect)” value (from here on “Insecticidal activity LD50”) ([4]; in vivo) was 2.02 (1.87–2.14) mg/g of insect and the “Antifeedant index (% AI)” value ([2]; concentration 50 µg/mL) was 17.8%. For the same compound, the “Antifeedant index (% AI)” value ([2]; concentration 100 µg/mL) was 26.7%, the “Antifeedant index (% AI)” value ([2]; concentration 250 µg/mL) was 36.6% and the “Antifeedant index (% AI)” value ([2]; concentration 500 µg/mL) was 44.4%. The “Antifeedant index (% AI)” value ([2]; concentration 1000 µg/mL) was 55.3%.
With `CCCc1ccc(O)c(OC)c1` [Compound 13, 2-methoxy-4-propylphenol] the IC50 [1] was 132 ± 2.77 µM, the “Insecticidal activity LD50” value [4, 5] was 2.02 (1.87–2.17) mg/g of insect and the EC50 [2] was 319 µg/mL (≈ 1920 µM). The “Antifeedant index (% AI)” value ([2]; concentration 50 µg/mL) was 11.7%, the “Antifeedant index (% AI)” value ([2]; concentration 100 µg/mL) was 26.7% and the “Antifeedant index (% AI)” value ([2]; concentration 250 µg/mL) was 38.6%. The “Antifeedant index (% AI)” value ([2]; concentration 500 µg/mL) was 65.0% and the “Antifeedant index (% AI)” value ([2]; concentration 1000 µg/mL) was 72.9%.
`CNC(=O)ON=C(C)SC` [Methomyl, methomyl, reference compound] was tested, and the IC50 [1] was 1.91 µM, the “Insecticidal activity LD50” value [4, 5] was 0.31 (0.29–0.33) mg/g of insect and the “LC50 (µg/mL), toxicity in Artemia salina larvae test” value [3] was 205.2 (184.9–225.5) µg/mL.
For `C=CCc1ccc(OC(=O)c2ccc([N+](=O)[O-])cc2)c(OC)c1` [Compound 7, O-(4-nitrobenzoyl)eugenol], the IC50 [1] was 314 µM, the EC50 [2] was 724 µg/mL (≈ 2310 µM) and the “Antifeedant index (% AI)” value ([2]; concentration 50 µg/mL) was 23.8%. For the same compound, the “Antifeedant index (% AI)” value ([2]; concentration 100 µg/mL) was 31.6%, the “Antifeedant index (% AI)” value ([2]; concentration 250 µg/mL) was 39.4% and the “Antifeedant index (% AI)” value ([2]; concentration 500 µg/mL) was 45.1%. For the same compound, the “Antifeedant index (% AI)” value ([2]; concentration 1000 µg/mL) was 55.0%.
`C=CCc1ccc(OC)c(OC)c1` [Compound 2, O-methyleugenol] gave an IC50 [1] of 157 µM and an EC50 [2] of 504 µg/mL (≈ 2830 µM).
For `COc1cc(C2OCOCC2C)ccc1O` (centres unmarked) [Compound 14, 2-methoxy-4-(5-methyl-1,3-dioxan-4-yl)-phenol], the IC50 [1] was 168 µM, the EC50 [2] was 1800 µg/mL (≈ 8010 µM) and the “Antifeedant index (% AI)” value ([2]; concentration 100 µg/mL) was 10.5%. The “Antifeedant index (% AI)” value ([2]; concentration 250 µg/mL) was 20.0%, the “Antifeedant index (% AI)” value ([2]; concentration 500 µg/mL) was 33.2% and the “Antifeedant index (% AI)” value ([2]; concentration 1000 µg/mL) was 41.9%.
Isoeugenol [Compound 8] was tested, and the “Antifeedant activity CE50” value [2] was 158.51 µg/mL and < 210 µg/mL, the “Antifeedant activity CE50 (µg/mL)” value [2] was 158.5 (149.3–167.8) µg/mL and the “Antifeedant index (% AI)” value ([2]; concentration 25 µg/mL) was 15.6%. For the same compound, the “Antifeedant index (% AI)” value ([2]; concentration 50 µg/mL) was 37.3%, the “Antifeedant index (% AI)” value ([2]; concentration 100 µg/mL) was 45.6% and the “Antifeedant index (% AI)” value ([2]; concentration 250 µg/mL) was 56.6%. The “Antifeedant index (% AI)” value ([2]; concentration 500 µg/mL) was 65.9% and the “Antifeedant index (% AI)” value ([2]; concentration 1000 µg/mL) was 78.5%.
